One may read the IC50 as the midpoint of a concentration-inhibition curve. Read a low IC50 as greater potency in that assay.

In experiment [1] the target is Macrophage-stimulating protein receptor (Homo sapiens, UniProt Q04912). The experiment in a line: Inhibition of Ron (unknown origin) using poly (Glu, Tyr) 4:1 as substrate after 30 mins by HTRF assay. Background: Time-resolved FRET reads energy transfer from a long-lived donor to a nearby acceptor.
Experiment [2] addresses Epidermal growth factor receptor (Homo sapiens, UniProt P00533). The experiment in a line: Inhibition of EGFR (unknown origin) using poly (Glu, Tyr) 4:1 as substrate after 30 mins by HTRF assay.
Experiment [3] has as its target Platelet-derived growth factor receptor alpha (Homo sapiens, UniProt P16234). The experiment in a line: Inhibition of PDGFRalpha (unknown origin) using poly (Glu, Tyr) 4:1 as substrate after 30 mins by HTRF assay.
The target of experiment [4] is Hepatocyte growth factor receptor (Homo sapiens, UniProt P08581). The experiment in a line: Inhibition of c-Met (unknown origin) using poly (Glu, Tyr) 4:1 as substrate after 30 mins by HTRF assay.
Hepatocyte growth factor receptor, sequence (P08581 whole entry): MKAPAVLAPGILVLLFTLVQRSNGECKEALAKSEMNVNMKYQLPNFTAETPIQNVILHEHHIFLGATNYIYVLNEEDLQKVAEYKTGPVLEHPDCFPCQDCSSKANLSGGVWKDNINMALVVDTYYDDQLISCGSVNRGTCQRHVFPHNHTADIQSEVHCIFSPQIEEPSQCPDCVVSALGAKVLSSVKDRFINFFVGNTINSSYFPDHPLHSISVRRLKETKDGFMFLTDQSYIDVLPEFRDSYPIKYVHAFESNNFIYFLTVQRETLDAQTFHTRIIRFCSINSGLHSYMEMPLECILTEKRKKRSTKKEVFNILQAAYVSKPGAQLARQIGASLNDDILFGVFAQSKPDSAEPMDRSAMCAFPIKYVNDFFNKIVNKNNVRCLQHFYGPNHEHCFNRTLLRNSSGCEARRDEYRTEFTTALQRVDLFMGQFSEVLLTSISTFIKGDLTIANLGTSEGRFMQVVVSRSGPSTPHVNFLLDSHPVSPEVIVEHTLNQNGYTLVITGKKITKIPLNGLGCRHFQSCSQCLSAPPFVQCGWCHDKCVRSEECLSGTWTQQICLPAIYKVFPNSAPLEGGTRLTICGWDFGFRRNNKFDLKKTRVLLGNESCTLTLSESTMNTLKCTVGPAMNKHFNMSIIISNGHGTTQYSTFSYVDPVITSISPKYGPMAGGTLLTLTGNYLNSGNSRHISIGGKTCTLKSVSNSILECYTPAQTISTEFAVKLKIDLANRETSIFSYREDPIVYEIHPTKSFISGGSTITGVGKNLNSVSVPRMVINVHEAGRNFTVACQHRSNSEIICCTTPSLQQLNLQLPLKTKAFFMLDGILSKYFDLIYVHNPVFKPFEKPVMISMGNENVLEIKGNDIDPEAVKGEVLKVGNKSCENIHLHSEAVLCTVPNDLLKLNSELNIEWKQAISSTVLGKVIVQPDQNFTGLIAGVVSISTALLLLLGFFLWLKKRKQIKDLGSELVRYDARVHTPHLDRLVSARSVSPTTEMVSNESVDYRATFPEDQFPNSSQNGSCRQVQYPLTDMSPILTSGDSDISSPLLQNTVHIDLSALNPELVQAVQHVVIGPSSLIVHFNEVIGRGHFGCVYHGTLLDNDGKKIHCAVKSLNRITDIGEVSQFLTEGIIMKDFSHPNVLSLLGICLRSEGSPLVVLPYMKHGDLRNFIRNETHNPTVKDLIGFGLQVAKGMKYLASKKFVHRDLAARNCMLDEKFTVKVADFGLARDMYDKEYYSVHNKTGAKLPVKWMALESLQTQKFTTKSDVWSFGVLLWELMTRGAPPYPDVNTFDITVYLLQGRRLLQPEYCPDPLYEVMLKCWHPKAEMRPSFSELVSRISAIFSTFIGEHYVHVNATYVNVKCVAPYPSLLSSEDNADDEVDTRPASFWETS
The target in experiment [5] is Vascular endothelial growth factor receptor 2 (Homo sapiens, UniProt P35968). The experiment in a line: Inhibition of VEGFR2 (unknown origin) using poly (Glu, Tyr) 4:1 as substrate after 30 mins by HTRF assay.
Vascular endothelial growth factor receptor 2, sequence (P35968 whole entry): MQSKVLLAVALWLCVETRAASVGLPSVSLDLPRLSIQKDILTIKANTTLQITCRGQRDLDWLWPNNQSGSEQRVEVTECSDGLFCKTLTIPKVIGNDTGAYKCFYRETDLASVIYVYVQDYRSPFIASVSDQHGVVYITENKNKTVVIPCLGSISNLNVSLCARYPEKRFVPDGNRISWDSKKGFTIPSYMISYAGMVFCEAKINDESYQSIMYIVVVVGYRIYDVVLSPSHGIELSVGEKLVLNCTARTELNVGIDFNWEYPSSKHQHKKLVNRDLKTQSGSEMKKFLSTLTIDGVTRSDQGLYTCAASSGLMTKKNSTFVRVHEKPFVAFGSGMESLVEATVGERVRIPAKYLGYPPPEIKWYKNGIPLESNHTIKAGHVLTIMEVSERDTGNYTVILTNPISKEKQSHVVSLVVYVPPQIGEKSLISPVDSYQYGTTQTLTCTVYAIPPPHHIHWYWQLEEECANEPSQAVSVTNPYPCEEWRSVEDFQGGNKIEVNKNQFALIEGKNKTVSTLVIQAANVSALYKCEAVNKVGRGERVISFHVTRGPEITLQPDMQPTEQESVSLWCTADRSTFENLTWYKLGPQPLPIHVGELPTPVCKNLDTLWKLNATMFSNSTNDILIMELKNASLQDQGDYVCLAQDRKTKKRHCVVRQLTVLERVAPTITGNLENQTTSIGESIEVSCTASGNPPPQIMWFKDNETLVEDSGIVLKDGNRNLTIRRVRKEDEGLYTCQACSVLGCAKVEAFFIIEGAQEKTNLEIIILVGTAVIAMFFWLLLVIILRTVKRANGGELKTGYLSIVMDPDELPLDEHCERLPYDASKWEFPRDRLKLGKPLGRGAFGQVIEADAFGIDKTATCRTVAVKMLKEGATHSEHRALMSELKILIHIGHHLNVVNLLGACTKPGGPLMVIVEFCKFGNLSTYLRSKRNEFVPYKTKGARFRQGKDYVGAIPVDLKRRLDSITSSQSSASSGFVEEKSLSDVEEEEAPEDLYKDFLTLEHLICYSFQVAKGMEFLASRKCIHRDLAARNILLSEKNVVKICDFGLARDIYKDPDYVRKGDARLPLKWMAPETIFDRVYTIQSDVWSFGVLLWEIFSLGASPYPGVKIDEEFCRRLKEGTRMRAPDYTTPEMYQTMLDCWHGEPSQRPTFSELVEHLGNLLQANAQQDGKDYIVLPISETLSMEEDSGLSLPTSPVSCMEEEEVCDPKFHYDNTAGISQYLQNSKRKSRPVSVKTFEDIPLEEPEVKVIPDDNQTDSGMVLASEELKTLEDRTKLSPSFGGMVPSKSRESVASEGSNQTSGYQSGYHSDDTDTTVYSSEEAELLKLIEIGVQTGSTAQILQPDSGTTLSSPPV
Experiment [6] has as its target Mast/stem cell growth factor receptor Kit (Homo sapiens, UniProt P10721). The experiment in a line: Inhibition of c-Kit (unknown origin) using poly (Glu, Tyr) 4:1 as substrate after 30 mins by HTRF assay.
In experiment [7] the target is ALK tyrosine kinase receptor (Homo sapiens, UniProt Q9UM73). The experiment in a line: Inhibition of ALK (unknown origin) using poly (Glu, Tyr) 4:1 as substrate after 30 mins by HTRF assay.
Experiment [8] addresses T1, Receptor-type tyrosine-protein kinase FLT3 (Homo sapiens, UniProt P36888).
T1 sequence (P36888 whole entry): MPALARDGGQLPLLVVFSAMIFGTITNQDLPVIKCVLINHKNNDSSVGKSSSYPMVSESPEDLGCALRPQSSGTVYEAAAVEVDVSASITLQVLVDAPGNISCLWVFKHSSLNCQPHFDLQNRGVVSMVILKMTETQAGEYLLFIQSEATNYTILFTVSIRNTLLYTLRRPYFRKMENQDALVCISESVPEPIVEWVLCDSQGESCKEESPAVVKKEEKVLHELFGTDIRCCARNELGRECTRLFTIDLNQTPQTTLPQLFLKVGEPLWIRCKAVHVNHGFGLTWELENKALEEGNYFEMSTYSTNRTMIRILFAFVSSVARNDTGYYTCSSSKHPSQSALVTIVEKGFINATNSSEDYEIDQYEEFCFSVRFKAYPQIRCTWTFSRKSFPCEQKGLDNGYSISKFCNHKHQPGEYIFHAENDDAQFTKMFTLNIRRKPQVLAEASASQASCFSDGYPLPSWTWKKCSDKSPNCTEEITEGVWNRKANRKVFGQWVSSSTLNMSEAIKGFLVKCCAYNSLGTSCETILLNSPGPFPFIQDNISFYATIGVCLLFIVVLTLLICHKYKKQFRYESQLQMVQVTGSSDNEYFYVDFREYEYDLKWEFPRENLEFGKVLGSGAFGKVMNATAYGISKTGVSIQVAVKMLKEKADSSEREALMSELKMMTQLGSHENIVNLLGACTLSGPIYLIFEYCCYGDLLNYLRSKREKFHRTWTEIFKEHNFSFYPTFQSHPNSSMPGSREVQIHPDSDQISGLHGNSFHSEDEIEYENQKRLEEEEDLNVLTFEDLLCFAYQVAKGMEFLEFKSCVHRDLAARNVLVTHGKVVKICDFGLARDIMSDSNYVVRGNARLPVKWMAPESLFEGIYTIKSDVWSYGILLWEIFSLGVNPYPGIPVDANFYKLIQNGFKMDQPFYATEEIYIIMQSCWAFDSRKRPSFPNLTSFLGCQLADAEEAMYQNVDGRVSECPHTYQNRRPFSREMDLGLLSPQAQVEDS
The experiment in a line: Inhibition of Flt3 (unknown origin) using poly (Glu, Tyr) 4:1 as substrate after 30 mins by HTRF assay.

The test system of experiment [9] is A549. The experiment in a line: cells. As to conditions: Homo sapiens, A549, 72 h.
Description: Antiproliferative activity against human A549 cells after 72 hrs by MTT assay
The subject of experiment [10] is U-87 MG. The experiment in a line: Antiproliferative activity against human U87MG cells after 72 hrs by MTT assay. (In general: Formazan colour is commonly taken as a measure of viable cells.)
Experiment [11] relates to HT-29. The experiment in a line: cells. As to conditions: Homo sapiens, HT-29, 72 h.
In experiment [12] the test system is MKN-45. The experiment in a line: cells. As to conditions: Homo sapiens, MKN-45, 72 h.
Description: Antiproliferative activity against human MKN45 cells after 72 hrs by MTT assay
Experiment [13] concerns NCI-H460. The experiment in a line: Antiproliferative activity against human H460 cells after 72 hrs by MTT assay. Particulars: NCI-H460, 72 h.

Bounds are passed on as bounds.

Macrophage-stimulating protein receptor, sequence (Q04912 25-304 limits assumed): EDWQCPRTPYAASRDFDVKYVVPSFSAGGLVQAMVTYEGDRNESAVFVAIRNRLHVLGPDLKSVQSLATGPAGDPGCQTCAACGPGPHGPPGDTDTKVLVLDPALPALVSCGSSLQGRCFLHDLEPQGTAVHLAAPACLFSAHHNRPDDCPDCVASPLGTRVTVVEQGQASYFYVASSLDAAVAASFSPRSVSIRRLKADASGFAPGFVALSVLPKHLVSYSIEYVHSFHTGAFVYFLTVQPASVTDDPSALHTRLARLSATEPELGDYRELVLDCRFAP
Macrophage-stimulating protein receptor, sequence (Q04912 310-1400 limits assumed): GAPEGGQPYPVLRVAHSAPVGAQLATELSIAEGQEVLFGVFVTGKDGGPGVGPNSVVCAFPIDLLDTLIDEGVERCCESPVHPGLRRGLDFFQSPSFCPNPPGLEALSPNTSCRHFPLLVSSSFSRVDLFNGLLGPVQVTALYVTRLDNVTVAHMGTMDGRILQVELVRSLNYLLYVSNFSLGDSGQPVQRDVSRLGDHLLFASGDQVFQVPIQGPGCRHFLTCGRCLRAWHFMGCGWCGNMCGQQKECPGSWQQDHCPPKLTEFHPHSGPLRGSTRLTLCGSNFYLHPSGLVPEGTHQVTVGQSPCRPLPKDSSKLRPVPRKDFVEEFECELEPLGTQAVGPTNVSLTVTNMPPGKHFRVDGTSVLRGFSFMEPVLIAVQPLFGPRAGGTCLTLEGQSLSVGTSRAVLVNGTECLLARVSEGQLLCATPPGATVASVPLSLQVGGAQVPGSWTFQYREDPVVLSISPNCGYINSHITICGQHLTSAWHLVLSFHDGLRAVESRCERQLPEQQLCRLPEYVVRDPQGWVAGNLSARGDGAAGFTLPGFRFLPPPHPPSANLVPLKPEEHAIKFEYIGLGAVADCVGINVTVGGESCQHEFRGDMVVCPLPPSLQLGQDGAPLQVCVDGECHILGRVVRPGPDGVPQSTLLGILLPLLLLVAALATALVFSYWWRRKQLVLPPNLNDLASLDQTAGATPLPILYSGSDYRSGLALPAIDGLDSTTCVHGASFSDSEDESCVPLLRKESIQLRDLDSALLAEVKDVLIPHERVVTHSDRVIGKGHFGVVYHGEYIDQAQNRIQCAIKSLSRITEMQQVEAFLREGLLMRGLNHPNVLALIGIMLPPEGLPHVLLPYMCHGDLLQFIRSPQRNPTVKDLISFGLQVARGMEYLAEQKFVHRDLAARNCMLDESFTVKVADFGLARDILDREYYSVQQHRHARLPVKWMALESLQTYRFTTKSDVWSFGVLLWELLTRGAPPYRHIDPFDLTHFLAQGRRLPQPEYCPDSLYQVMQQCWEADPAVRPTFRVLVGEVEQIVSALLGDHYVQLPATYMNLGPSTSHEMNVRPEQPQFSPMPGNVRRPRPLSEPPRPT
Mast/stem cell growth factor receptor Kit, sequence (P10721 whole entry): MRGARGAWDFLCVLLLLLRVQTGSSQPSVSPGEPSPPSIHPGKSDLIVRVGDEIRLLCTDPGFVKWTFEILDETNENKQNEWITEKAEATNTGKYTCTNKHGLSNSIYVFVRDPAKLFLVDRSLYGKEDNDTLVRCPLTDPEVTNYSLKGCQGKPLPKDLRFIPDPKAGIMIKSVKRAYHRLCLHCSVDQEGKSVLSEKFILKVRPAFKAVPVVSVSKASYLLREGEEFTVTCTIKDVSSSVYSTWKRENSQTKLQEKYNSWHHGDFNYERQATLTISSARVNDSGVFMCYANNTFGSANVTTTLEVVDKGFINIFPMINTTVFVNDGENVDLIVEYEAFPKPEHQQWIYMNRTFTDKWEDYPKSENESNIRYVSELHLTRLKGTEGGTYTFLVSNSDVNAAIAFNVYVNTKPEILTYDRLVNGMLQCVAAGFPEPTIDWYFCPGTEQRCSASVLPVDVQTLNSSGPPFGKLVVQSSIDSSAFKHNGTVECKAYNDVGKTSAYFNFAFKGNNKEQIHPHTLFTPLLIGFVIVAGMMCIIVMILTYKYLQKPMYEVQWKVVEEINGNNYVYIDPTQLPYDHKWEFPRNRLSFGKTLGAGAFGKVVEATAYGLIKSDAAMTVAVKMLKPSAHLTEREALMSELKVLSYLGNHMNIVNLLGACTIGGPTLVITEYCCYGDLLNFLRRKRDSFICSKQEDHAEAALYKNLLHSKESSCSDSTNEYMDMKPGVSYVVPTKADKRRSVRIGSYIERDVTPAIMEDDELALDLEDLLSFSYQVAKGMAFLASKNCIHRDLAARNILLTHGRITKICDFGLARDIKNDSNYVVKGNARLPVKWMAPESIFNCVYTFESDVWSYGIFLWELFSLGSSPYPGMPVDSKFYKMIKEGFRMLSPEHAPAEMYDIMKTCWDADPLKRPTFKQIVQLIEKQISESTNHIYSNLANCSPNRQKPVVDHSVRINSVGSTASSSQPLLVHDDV

As for `COc1cc2c(Oc3ccc(NC(=O)c4nc5ccccc5n(-c5ccc(F)cc5)c4=O)cc3F)ccnc2cc1OCCCN1CCN(C)CC1`, the half-maximal inhibitory concentration (IC50) was 82.6 nM in [1]; 981 nM in experiment [2]; 19.1 nM in [3]; 0.9 nM in [4]; 152 nM in [5]; 2.45 nM in [6]. For the same compound, the half-maximal inhibitory concentration (IC50) worked out at 2840 nM in experiment [7] and 269 nM in experiment [8].
For the compound `COc1cc2c(Oc3ccc(NC(=O)c4nc5ccccc5n(-c5ccc(C)cc5)c4=O)cc3F)ccnc2cc1OCCCN1CCOCC1`, the IC50 in [9] amounted to 2160 nM; in [10], 4170 nM; in experiment [11] it was 1030 nM; in experiment [12], 580 nM; in [13] it was 1120 nM.
As for `COc1cc2c(Oc3ccc(NC(=O)c4nc5ccccc5n(-c5ccc(F)cc5)c4=O)cc3F)ccnc2cc1OCCCN1CCOCC1`, the 50% inhibitory concentration (IC50) in experiment [9] is 30 nM; in [10] it was 810 nM; in [4], 2.35 nM; in experiment [11] it was 110 nM; in [12] it was 26 nM; in experiment [13] it was 140 nM.
For the compound `COc1cc2c(Oc3ccc(NC(=O)c4nc5ccccc5n(-c5ccccc5C(F)(F)F)c4=O)cc3F)ccnc2cc1OCCCN1CCOCC1`, the IC50 was 220 nM in experiment [9]; 1780 nM in experiment [10]; 190 nM in experiment [11]; 560 nM in experiment [12]; 280 nM in experiment [13].
For `COc1cc2c(Oc3ccc(NC(=O)c4nc5ccccc5n(-c5ccc(Cl)cc5Cl)c4=O)cc3F)ccnc2cc1OCCCN1CCOCC1` the same measures were 170 nM, 5040 nM, 590 nM, 75 nM and 640 nM.
Turning to `COc1cc2c(Oc3ccc(NC(=O)c4nc5ccccc5n(-c5ccc(Br)cc5)c4=O)cc3F)ccnc2cc1OCCCN1CCOCC1`, the IC50 stood at 320 nM in experiment [9]; 1170 nM in experiment [10]; 170 nM in experiment [11]; 110 nM in experiment [12]; 210 nM in experiment [13].
For `COc1ccc(-n2c(=O)c(C(=O)Nc3ccc(Oc4ccnc5cc(OCCCN6CCOCC6)c(OC)cc45)c(F)c3)nc3ccccc32)cc1` the same measures were 1720 nM, over 32000 nM, 690 nM, 660 nM and 1850 nM.
The compound `COc1cc2c(Oc3ccc(NC(=O)c4nc5ccccc5n(-c5ccccc5F)c4=O)cc3F)ccnc2cc1OCCCN1CCC(C)CC1` gave a half-maximal inhibitory concentration (IC50) in experiment [4] of 13.1 nM.
Take `COc1cc2c(Oc3ccc(NC(=O)c4nc5ccccc5n(-c5ccccc5F)c4=O)cc3F)ccnc2cc1OCCCN1CCOCC1`: the IC50 in experiment [9] worked out at 33 nM; in [10] it was 650 nM; in experiment [4], 4.52 nM; in experiment [11], 170 nM; in [12] it was 29 nM; in experiment [13], 230 nM.
Take `COc1ccc(-n2c(=O)c(C(=O)Nc3ccc(Oc4ccnc5cc(OCCCN6CCOCC6)c(OC)cc45)c(F)c3)nc3ccccc32)c(OC)c1`: the IC50 amounted to 5110 nM in experiment [9]; 16200 nM in experiment [10]; 1290 nM in experiment [11]; 860 nM in [12]; 2050 nM in [13].
For the compound `COc1cc2c(Oc3ccc(NC(=O)c4nc5ccccc5n(-c5cccc(Cl)c5)c4=O)cc3F)ccnc2cc1OCCCN1CCOCC1`, the IC50 in experiment [9] stood at 240 nM; in experiment [10], 980 nM; in experiment [11] it was 330 nM; in [12], 340 nM; in experiment [13], 530 nM.
In experiment [4], `COc1cc2c(Oc3ccc(NC(=O)c4nc5ccccc5n(-c5ccc(F)cc5)c4=O)cc3F)ccnc2cc1OCCCN1CCCCC1` returned an IC50 of 8.03 nM.
Take `COc1cc2c(Oc3ccc(NC(=O)c4nc5ccccc5n(-c5ccccc5Cl)c4=O)cc3F)ccnc2cc1OCCCN1CCOCC1`: the IC50 in experiment [9] came out at 50 nM; in experiment [10], 1500 nM; in [4], 3.23 nM; in experiment [11], 150 nM; in experiment [12] it was 25 nM; in [13], 140 nM.
In the case of `COc1cc2c(Oc3ccc(NC(=O)c4nc5ccccc5n(-c5cccc(F)c5)c4=O)cc3F)ccnc2cc1OCCCN1CCOCC1`, the IC50 worked out at 310 nM in experiment [9]; 1850 nM in [10]; 200 nM in experiment [11]; 390 nM in experiment [12]; 400 nM in experiment [13].
`COc1cc2c(Oc3ccc(NC(=O)c4nc5ccccc5n(-c5ccc(F)cc5)c4=O)cc3F)ccnc2cc1OCCCN1CCC(C)CC1` gave an IC50 in experiment [4] of 3.57 nM.
Regarding `COc1cc2c(Oc3ccc(NC(=O)c4nc5ccccc5n(-c5ccc(OC(F)(F)F)cc5)c4=O)cc3F)ccnc2cc1OCCCN1CCOCC1`, the IC50 came to 330 nM in [9]; 1220 nM in [10]; 200 nM in [11]; 260 nM in experiment [12]; 290 nM in experiment [13].
As for `COc1cc2c(Oc3ccc(NC(=O)c4nc5ccccc5n(-c5ccccc5)c4=O)cc3F)ccnc2cc1OCCCN1CCOCC1`, the IC50 amounted to 410 nM in experiment [9]; 1720 nM in [10]; 200 nM in experiment [11]; 82 nM in experiment [12]; 1040 nM in experiment [13].
For the compound `COc1cc2c(Oc3ccc(NC(=O)c4nc5ccccc5n(-c5ccc(Cl)cc5)c4=O)cc3F)ccnc2cc1OCCCN1CCOCC1`, the IC50 in [9] turned out to be 42 nM; in experiment [10], 1060 nM; in experiment [4], 6.76 nM; in experiment [11] it was 160 nM; in experiment [12], 29 nM; in experiment [13], 280 nM.

The values are drawn from ChEMBL document CHEMBL4052772, “Design, synthesis and biological evaluation of novel 4-phenoxyquinoline derivatives containing 3-oxo-3,4-dihydroquinoxaline moiety as c-Met kinase inhibitors” (Bioorg Med Chem, 2017).
